Experimental findings from article PMC10600239, “Selective MCL-1 inhibitor ABBV-467 is efficacious in tumor models but is associated with cardiac troponin increases in patients” (Communications Medicine, 2023) are described below.

Assay [1] has as its target T1, dog MCL1 (Canis lupus familiaris, UniProt Q8HYS5).
T1 construct: rhesus monkey (iso4, NM_001 1089 3 7, AA 171-327), dog (NM_001 0030 16, AA17 1- 327); made in house; host or cells: E. coli BL21(DE3)-T1R
Nature of the assay: TR-FRET binding assay, MCL-1 orthologs. The note with it: read-out: Ki, canine MCL-1. The procedure: (§1) Binding affinities for MCL-1, BCL-2, BCL-XL, BCL-W, and BCL2-A1 were determined using a time-resolved fluorescence resonance energy transfer (FRET) assay. Test compounds were serially diluted in DMSO starting at […] (20× starting concentration; 100% DMSO followed by a 1:10 dilution of the compound DMSO plate into assay buffer); 10 µL of the compound in 10% DMSO was then transferred into a 384-well plate (low-volume Corning #3673 assay plate). Glutathione S-transferase (GST)-tagged recombinant BCL-2, BCL-XL, MCL-1, BCL-W, or BCL2-A1 protein (1 nM each) were mixed with 100 nM Oregon Green™-labeled f-BAK peptide probe and 1 nM Tb-labeled anti-GST antibody were mixed. Then 10 µL of a 2× protein/probe/antibody mix was added to each well of increasing concentrations of test compound in assay buffer (20 mM potassium phosphate, pH 7.6, 50 mM NaCl, 1 mM ethylenediaminetetraacetic acid disodium salt dihydrate, 0.05% pluronic acid F-68, 1 mM DL-dithiothreitol) at room temperature (final concentrations listed in Supplementary Table S2). The samples were then mixed on a shaker for 1 min and incubated for an additional 1 h at room temperature. For each assay plate, a probe/antibody and protein/antibody/probe mixture were included as a negative and a positive control, respectively. Fluorescence was measured on the EnVision™ (Perkin Elmer) using a 340/35-nm excitation filter and 520/525- (F-Bak) and 495/510-nm (Tb-labeled anti-glutathione S-transferase [GST] antibody) emission filters. Dissociation constants were determined using Wang’s equation[35]. The time-resolved FRET assay can be performed in the presence of varying concentrations of human serum to determine apparent half-maximal inhibitory concentration after serum protein binding.
(§2) Supplementary Table S10: MCL-1 ortholog information and ABBV-467 affinity across species […]
(§3) Mouse Mus musculus Rattus Canis lupus Macaca sp.
(§4) Protein name Mcl1 Mcl1 M CL1 M CL1 […]
(§5) Amino acid sequence homology determined with NCBI BLAST (http://blast.ncbi.nlm.nih.gov). […]

Assay [2] has as its target T2, mouse Mcl1 (Mus musculus, UniProt P97287).
T2 construct: made in house; host or cells: E. coli BL21(DE3)-T1R
Nature of the assay: TR-FRET binding assay, MCL-1 orthologs. On the procedure:
as §1, §2, §3, §4, §5

Assay [3] deals with T3, rat Mcl1 (Rattus norvegicus, UniProt Q9Z1P3).
T3 construct: made in house; host or cells: E. coli BL21(DE3)-T1R
T3 sequence (Q9Z1P3 151-307): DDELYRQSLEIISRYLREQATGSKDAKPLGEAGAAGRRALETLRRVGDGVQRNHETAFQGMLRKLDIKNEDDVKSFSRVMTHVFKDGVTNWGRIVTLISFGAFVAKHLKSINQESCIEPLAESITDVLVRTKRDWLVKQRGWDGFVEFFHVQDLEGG
Nature of the assay: TR-FRET binding assay, MCL-1 orthologs. On the procedure: as §1, §2, §3, §4, §5

In assay [4] the test system is H929 cells. Kind of assay: In vitro cell viability assay (CellTiter-Glo). It is filed as cell-based, human. On the procedure: All cell lines were grown and treated in RPMI 1640 or Dulbecco’s modified Eagle medium (Sigma, St. Louis, MO) supplemented with 10% fetal bovine serum (Gibco) or 10% human serum (Sigma) and maintained in a humidified incubator at 5% CO2 and 37 °C. DLD-1, MV4-11, NCI-H929 (all ATCC, Manassas, VA, USA) and AMO-1 (DSMZ, Braunschweig, Germany) cells were plated 4000 cells per well in 384-well tissue culture plates and treated with compounds of interest for 24 h at 37 °C, 5% CO2 humidified incubator. Each concentration was tested in duplicate at least 3 separate times. Adherent cells were allowed to adhere overnight prior to treatment. Alternatively, AMO-1 or NCI-H929 cells were treated with ABBV-467 for the indicated contact times (1–24 h) at 37 °C in a 5% CO2 humidified incubator and washed 3 times with compound-free media prior to incubation for the remainder of a 24-h treatment period. Cell viability was subsequently determined using CellTiter-Glo (Promega, Madison, WI, USA) according to the manufacturer’s instructions.
For in vitro viability assays, mean EC50 and EC90 values were determined from the resulting dose-response curves from at least 3 independent experiments, and depict the mean ± standard error of the mean.
Fig. 2 Apoptosis induced by ABBV-467 is mechanism based and induces cell death in MCL-1-dependent cell lines after short target engagement periods. H929 cells were treated with ABBV-467 in the presence or absence of the pan-caspase inhibitor z-VAD-fmk (50 µM) and the impact on caspase-3/7 activation (a), mitochondrial membrane potential (ΔΨm; b), and apoptosis (c) determined. Alternatively, BAK-deficient SKBR3 cells were treated with ABBV-467 for 24 h and the impact on cell viability compared with the parental cell line, determined by CellTiter-Glo. Inset depicts a western blot of BAK and BAX expression in SKBR3 cell variants using GAPDH as a loading control. Each of the 3 proteins were probed on separate blots (d). Data in (a–d) are presented as the mean ± standard error of the mean. H929 and AMO-1 cells were treated with ABBV-467 at the indicated concentrations and the impact on caspase-3/7 activation and viability (DRAQ7-positive) cells determined over time by Incucyte®. Data are presented as the mean ± standard deviation (e). H929 or AMO-1 cells were cultured in media containing 10% human serum and treated with ABBV-467 for the indicated contact times. Cells were subsequently washed 3 times with drug-free media and incubated in drug-free media for the remainder of the 24-h treatment period at 37 °C before cell viability was determined by CellTiter-Glo. Mean EC50 and EC90 values were determined from the resulting dose-response curves from at least 3 independent experiments, each assessed in quadruplicate, and depict the mean ± standard error of the mean. Presented ABBV-467 dose-response curves in H929 and AMO-1 cells were compiled from at least 3 independent experiments (f).

For assay [5], the target named is T4, monkey MCL1 (Macaca mulatta, UniProt F7HUE9).
T4 construct: rhesus monkey (iso4, NM_001 1089 3 7, AA 171-327); made in house; host or cells: E. coli BL21(DE3)-T1R
T4 sequence (F7HUE9 171-327): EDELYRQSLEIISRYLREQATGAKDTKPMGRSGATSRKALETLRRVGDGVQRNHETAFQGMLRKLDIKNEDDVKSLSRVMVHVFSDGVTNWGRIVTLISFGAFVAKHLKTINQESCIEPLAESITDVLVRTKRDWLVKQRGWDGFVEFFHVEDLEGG
Kind of assay: TR-FRET binding assay, MCL-1 orthologs. Set-up: species or system Monkey Macaca sp. On the procedure:
as §1, with “The samples were then mixed on a shaker for 1 min and incubated for an additional 1 h at room temperature. For each assay plate, a probe/antibody and protein/antibody/probe mixture were included as a negative and a positive control, respectively.” left out, “The time-resolved FRET assay can be performed in the presence of varying concentrations of human serum to determine apparent half-maximal inhibitory concentration after serum protein binding.” left out
as §5

Where “and” joins values, the source holds several entries; their conditions need not be identical. Identical values can stand only once. Like-named read-outs stand apart in the source and are kept apart here.

T1 sequence (Q8HYS5 171-327): as the sequence (F7HUE9 171-327) above, with T26A, M29L, R31G, G33R, T35A, R44Q, M80I, T110S counted along it
T2 sequence (P97287 152-308): as the sequence (Q9Z1P3 151-307) above, with D1E, E3D, A26S, D71G, T81V, I111V, C116F, S123T counted along it

Regarding `Cc1c(Cl)c2c(Cl)c(C)c1-c1c(-c3ccc(F)cc3)sc3ncnc(c13)O[C@@H](C(=O)O)Cc1cc(ccc1OCc1ccnc(-c3ccc(OC[C@H]4COCCO4)cc3)n1)OC[C@@H](CN1CCN(C)CC1)O2` [ABBV-467], the Ki in assay [1], in assay [3] and in assay [5] was below 0.1 nM throughout. In assay [2], the “affinity for the murine mcl1” value was “substantially reduced affinity”. The EC50 turned out to be 84.5 nM in assay [4] (Homo sapiens, NCI-H929, 10% human serum, contact time 1 hr, washout, viability at 24 h, read-out: H929 Mean EC50); 61.8 nM in assay [4] (Homo sapiens, NCI-H929, 10% human serum, contact time 2 hr, washout, viability at 24 h, read-out: H929 Mean EC50); 18.9 nM in assay [4] (Homo sapiens, NCI-H929, 10% human serum, contact time 4 hr, washout, viability at 24 h, read-out: H929 Mean EC50); 11.7 nM in assay [4] (Homo sapiens, NCI-H929, 10% human serum, contact time 6 hr, washout, viability at 24 h, read-out: H929 Mean EC50); 1.5 nM in assay [4] (Homo sapiens, NCI-H929, 24 h, 10% human serum, contact time 24 hr, read-out: H929 Mean EC50); 0.4 nM in assay [4] (Homo sapiens, NCI-H929, 24 h, read-out: H929 EC50 (nM, 10% FBS), 10% FBS, 24 h continuous treatment). Further, the EC50 in assay [4] (Homo sapiens, NCI-H929, NCI-H929, arithmetic mean, read-out: Arithmetic Mean EC50 µM) is 0.468 nM; in assay [4] (NCI-H929, individual determinations, read-out: Individual EC50) it was 0.595 nM and 0.693 nM and 0.692 nM and 0.364 nM and 0.531 nM and 0.29 nM and 0.314 nM and 0.373 nM and 0.366 nM and 0.36 nM and 0.313 nM and 0.717 nM and 0.472 nM; in assay [4] (read-out: H929 EC50 (nM, 10% FBS), 10% FBS, 24 h continuous treatment) it was 0.47 nM. The EC90 in assay [4] (Homo sapiens, NCI-H929, 10% human serum, contact time 2 hr, washout, viability at 24 h, read-out: H929 Mean EC90) turned out to be 236 nM; in assay [4] (Homo sapiens, NCI-H929, 10% human serum, contact time 6 hr, washout, viability at 24 h, read-out: H929 Mean EC90) it was 108 nM; in assay [4] (Homo sapiens, NCI-H929, 24 h, 10% human serum, contact time 24 hr, read-out: H929 Mean EC90), 5.6 nM; in assay [4] (Homo sapiens, NCI-H929, read-out: H929 Mean EC90, 10% human serum, contact time 1 hr, washout, viability at 24 h), 458 nM; in assay [4] (Homo sapiens, NCI-H929, read-out: H929 Mean EC90, 10% human serum, contact time 4 hr, washout, viability at 24 h), 133 nM.
